{"source": "patent US20070123569A1", "about": "“THERAPEUTIC METHODS USING PROSTAGLANDIN EP4 AGONIST COMPONENTS” (ALLERGAN, INC., priority 2005, published 2007)", "key": {"AGS cells": {"tested_on": "AGS cells", "test": "Indomethacin-induced apoptosis of AGS gastric epithelial cells (flow cytometry)", "format": "cell-based", "settings": "FIG. 2", "description": "Studies similar to those described for Examples 38 to 40 were conducted on cultured human gastric epithelial cells. This cell line, designated as AGS, was purchased from ATCC. […] Prostaglandin EP4 agonist 1 was given at four different concentrations to separate samples of the cells in a serum-free medium. One hour later, indomethacin at 400 μM was added into the culture medium in three of the samples to induce apoptosis of the AGS cells. Twenty four (24) hours after the addition of indomethacin, the cells were collected and processed for flow cytometry analysis. Ten thousand (10,000) cells were sorted for each sample, and the percentage of apoptotic cells was calculated."}, "IEC-18 cells": {"tested_on": "IEC-18 cells", "test": "Indomethacin-induced apoptosis of IEC-18 cells (flow cytometry)", "format": "cell-based, rat", "settings": "24 h, FIG. 1", "description": "Rat ileum epithelial cells identified as IEC-18, were purchased from ATCC. The cells were seeded and cultured overnight. In three (3) series of tests, each of PGE2, prostaglandin EP4 agonist 1 and prostaglandin EP4 agonist prodrug 3 was given at one or two concentrations to separate samples of the cells in a serum-free medium. One hour later, the non-steroidal anti-inflammatory drug (NSAID) indomethacin at 100 μM was added into the culture medium to induce apoptosis of the IEC-18 cells. Twenty four (24) hours after the addition of indomethacin, the cells were collected and processed for flow cytometry analysis. Ten thousand (10,000) cells were sorted for each sample, and the percentage of apoptotic cells was calculated."}, "gastric mucous cells": {"tested_on": "gastric mucous cells", "test": "BrdU immunostaining of stomach tissue sections from indomethacin-dosed mice", "format": "in vivo, mouse", "settings": "given prior to indomethacin, FIG. 7", "description": "Each of prostagiandin EP4 agonist 1 and PGE 1 analog Misoprostol was given to C57BL/6 mice at two or three concentrations. Twenty four (24) hours and 30 minutes later, the NSAID indomethacin was given at 20 mg/kg to induce stomach lesions and stomach inflammation. Twenty four (24) hours after indomethacin dosing, the mice were sacrificed and the stomach lesions were scored histopathologically and by gross lesion count.\nBrdU immunostaining was performed on stomach tissue sections from mice treated with the prostaglandin EP4 agonist 1 and the PGE1 analog Misoprostol. Incorporation of BrdU label, as detected with positive BrdU immunostaining, is indicative of cell growth/regeneration. The abilities of prostaglandin EP4 agonist 1 and the PGE1 analog Misoprostol to regenerate gastric epithelial cells when given prior to indomethacin dosing were compared. The mean percentages of BrdU label incorporated cells in stomach tissue sections and the standard errors of the means from both treatments are shown in FIG. 7."}}, "data": [{"molecule": "COc1ccc2c(c1)c(CC(=O)O)c(C)n2C(=O)c1ccc(Cl)cc1", "note": "[Indomethacin, indomethacin, reference compound]", "values": [{"measurement": "apoptosis induced by indomethacin itself", "setting": "AGS cells; indomethacin 400 μM, 24 h", "value": "about 30%"}]}, {"molecule": "CCCCC[C@H](O)/C=C/[C@H]1[C@H](O)CC(=O)[C@@H]1C/C=C\\CCCC(=O)O", "note": "[PGE2, prostaglandin E2, reference compound]", "values": [{"measurement": "reduction of indomethacin-induced apoptosis", "setting": "IEC-18 cells; serum-free medium, indomethacin 100 μM added 1 h after compound", "value": "about 65%"}]}, {"molecule": "CC1(C)C(=O)[C@H](C/C=C\\CCCC(=O)O)[C@@H](/C=C/C(O)CCc2sc3ccccc3c2Cl)[C@@H]1O", "note": "(stereo partly drawn) [prostaglandin EP4 agonist 1]", "values": [{"measurement": "restoration of regenerative ability of gastric mucous cells, BrdU label (in words)", "setting": "gastric mucous cells", "value": "significant restoration"}, {"measurement": "restoration of regenerative ability of gastric mucous cells injured by indomethacin (BrdU label)", "setting": "gastric mucous cells; maximum dose employed", "value": "about 25%"}, {"measurement": "effect on indomethacin-induced apoptosis (in words)", "setting": "IEC-18 cells; indomethacin 100 μM", "value": "reduced indomethacin-induced apoptosis significantly"}, {"measurement": "apoptosis or cell death with the agonist alone (no indomethacin)", "setting": "AGS cells; serum-free medium", "value": "very little or substantially no apoptosis or cell death"}]}]}
